Source: BindingDB's records for doi:10.1021/jm00008a008 (Arris Pharmaceutical, 1995)

assay: Tested for activity against 5-hydroxytryptamine 1A receptor from bovine hippocampus

Row | Structure (SMILES) | Ki
1 | COc1cccc2c1CC[C@@H]1[C@H]2CCN1CC1CC1 [(3aR,9bS)-3-Cyclopropylmethyl-6-methoxy-2,3,3a,4,5,9b-hexahydro-1H-benzo[e]indole] | 1000 nM
2 | COc1cccc2c1C[C@H]1CCN[C@H]1C2 [5-Methoxy-2,3,3a,4,9,9a-hexahydro-1H-benzo[f]indole] | 1000 nM
3 | CCCN1[C@H](C)C[C@H]2c3c(O)cccc3CC[C@H]21 [(2R,3aR,9bS)-2-Methyl-3-propyl-2,3,3a,4,5,9b-hexahydro-1H-benzo[e]indol-9-ol] | 16 nM
4 | COc1cccc2c1C[C@H]1CCN(Cc3ccccc3)[C@H]1C2 [1-Benzyl-5-methoxy-2,3,3a,4,9,9a-hexahydro-1H-benzo[f]indole] | 1000 nM
5 | CCCN1CC[C@H]2c3c(cccc3OC)CC[C@@H]21 [(3aS,9bS)-9-Methoxy-3-propyl-2,3,3a,4,5,9b-hexahydro-1H-benzo[e]indole] | 0.2 nM
